From patent publication US11697648B2, “Fused pyrimidine pyridinone compounds as JAK inhibitors” (THERAVANCE BIOPHARMA R&D IP, LLC, priority 2019, dated 2023)

Columns and labels:
Tyk2 = Tyk2 (Homo sapiens (Human), UniProt P29597); assay: Biochemical Tyk2 kinase assay (LanthaScreen)
Method: (§1) Assay 1: Biochemical JAK and Tyk2 Kinase Assays
(§2) A panel of four LanthaScreen JAK biochemical assays (JAK1, 2, 3 and Tyk2) were carried in a common kinase reaction buffer (50 mM HEPES, pH 7.5, 0.01% Brij-35, 10 mM MgCl2, and 1 mM EGTA). Recombinant GST-tagged JAK enzymes and a GFP-tagged STAT1 peptide substrate were obtained from Life Technologies.
(§3) Serially or discretely diluted compounds were pre-incubated with each of the four JAK enzymes and the substrate in white 384-well microplates (Corning) at ambient temperature for 1 h. ATP was subsequently added to initiate the kinase reactions in 10 μL total volume, with 1% DMSO. […] Kinase reactions were allowed to proceed for 1 hour at ambient temperature before a 10 μL preparation of EDTA (10 mM final concentration) and Tb-anti-pSTAT1 (pTyr701) antibody (Life Technologies, 2 nM final concentration) in TR-FRET dilution buffer (Life Technologies) was added. The plates were allowed to incubate at ambient temperature for 1 h before being read on the EnVision reader (Perkin Elmer). Emission ratio signals (520 nm/495 nm) were recorded and utilized to calculate the percent inhibition values based on DMSO and background controls.
(§4) For dose-response analysis, percent inhibition data were plotted vs. compound concentrations, and IC50 values were determined from a 4-parameter robust fit model with the Prism software (GraphPad Software). Results were expressed as pIC50 (negative logarithm of IC50) and subsequently converted to pKi (negative logarithm of dissociation constant, Ki) using the Cheng-Prusoff equation.

JAK1 = JAK1 (Homo sapiens (Human), UniProt P23458); assay: Biochemical JAK1 kinase assay (LanthaScreen)
Method: as §1, §2, §3, §4

[1] = system: IL-2 stimulated STAT5 phosphorylation in Tall-1 human T cell line (JAK3); assay: Cellular JAK3 potency assay: inhibition of IL-2 stimulated pSTAT5 in Tall-1 T cells; type: cell-based
Method: Assay 2: Cellular JAK3 Potency Assay: Inhibition of IL-2 Stimulated pSTAT5 in Tall-1 T Cells
The potency of test compounds for inhibition of interleukin-2 (IL-2) stimulated STAT5 phosphorylation was measured in the Tall-1 human T cell line (DSMZ) using AlphaLisa. Because IL-2 signals through JAK3, this assay provides a measure of JAK3 cellular potency.
Phosphorylated STAT5 was measured via the AlphaLISA SureFire Ultra pSTAT5 (Tyr694/699) kit (PerkinElmer).
Human T cells from the Tall-1 cell line were cultured in a 37° C., 5% CO2 humidified incubator in RPMI (Life Technologies) supplemented with 15% Heat Inactivated Fetal Bovine Serum (FBS, Life Technologies), 2 mM Glutamax (Life Technologies), 25 mM HEPES (Life Technologies) and 1× Pen/Strep (Life Technologies). Compounds were serially diluted in DMSO and dispensed acoustically to empty wells. Assay media (phenol red-free DMEM (Life Technologies) supplemented with 10% FBS (ATCC)) was dispensed (4 μL/well) and plates shaken at 900 rpm for 10 inns. Cells were seeded at 45,000 cells/well in assay media (4 μL/well), and incubated at 37° C., 5% CO2 for 1 hour, followed by the addition of IL-2 (R&D Systems; final concentration 300 ng/ml) in pre-warmed assay media (4 μL) for 30 minutes. After cytokine stimulation, cells were lysed with 6 ul of 3× AlphaLisa Lysis Buffer (PerkinElmer) containing 1× PhosStop and Complete tablets (Roche). The lysate was shaken at 900 rpm for 10 minutes at room temperature (RT). Phosphorylated STAT5 was measured via the pSTAT5 AlphaLisa kit (PerkinElmer). Freshly prepared acceptor bead mixture was dispensed onto lysate (5 μL) under green filtered <100 lux light. Plates were shaken at 900 rpm for 2 mins, briefly spun down, and incubated for 2 hrs at RT in the dark. Donor beads were dispensed (5 μL) under green filtered <100 lux light. Plates were shaken at 900 rpm for 2 minutes, briefly spun down, and incubated overnight at RT in the dark. Luminescence was measured with excitation at 689 nm and emission at 570 nm using an EnVision plate reader (PerkinElmer) under green filtered <100 lux light.
To determine the inhibitory potency of test compounds in response to IL-2, the average emission intensity of beads bound to pSTAT5 was measured in a human T cell line. IC50 values were determined from analysis of the inhibition curves of signal intensity versus compound concentration. Data are expressed as pIC50 (negative decadic logarithm IC50) values (mean standard deviation).

JAK2 = JAK2 (Homo sapiens (Human), UniProt O60674); assay: Biochemical JAK2 kinase assay (LanthaScreen)
Method: as §1, §2, §3, §4

JAK3 = JAK3 (Homo sapiens (Human), UniProt P52333); assay: Biochemical JAK3 kinase assay (LanthaScreen)
Method: as §1, §2, §3, §4

[2] = IL-2 stimulated pSTAT5, Tall-1 T cells
[3] = selectivity JAK3 over JAK1, difference of pKi

Chain of JAK3 (P52333 whole entry): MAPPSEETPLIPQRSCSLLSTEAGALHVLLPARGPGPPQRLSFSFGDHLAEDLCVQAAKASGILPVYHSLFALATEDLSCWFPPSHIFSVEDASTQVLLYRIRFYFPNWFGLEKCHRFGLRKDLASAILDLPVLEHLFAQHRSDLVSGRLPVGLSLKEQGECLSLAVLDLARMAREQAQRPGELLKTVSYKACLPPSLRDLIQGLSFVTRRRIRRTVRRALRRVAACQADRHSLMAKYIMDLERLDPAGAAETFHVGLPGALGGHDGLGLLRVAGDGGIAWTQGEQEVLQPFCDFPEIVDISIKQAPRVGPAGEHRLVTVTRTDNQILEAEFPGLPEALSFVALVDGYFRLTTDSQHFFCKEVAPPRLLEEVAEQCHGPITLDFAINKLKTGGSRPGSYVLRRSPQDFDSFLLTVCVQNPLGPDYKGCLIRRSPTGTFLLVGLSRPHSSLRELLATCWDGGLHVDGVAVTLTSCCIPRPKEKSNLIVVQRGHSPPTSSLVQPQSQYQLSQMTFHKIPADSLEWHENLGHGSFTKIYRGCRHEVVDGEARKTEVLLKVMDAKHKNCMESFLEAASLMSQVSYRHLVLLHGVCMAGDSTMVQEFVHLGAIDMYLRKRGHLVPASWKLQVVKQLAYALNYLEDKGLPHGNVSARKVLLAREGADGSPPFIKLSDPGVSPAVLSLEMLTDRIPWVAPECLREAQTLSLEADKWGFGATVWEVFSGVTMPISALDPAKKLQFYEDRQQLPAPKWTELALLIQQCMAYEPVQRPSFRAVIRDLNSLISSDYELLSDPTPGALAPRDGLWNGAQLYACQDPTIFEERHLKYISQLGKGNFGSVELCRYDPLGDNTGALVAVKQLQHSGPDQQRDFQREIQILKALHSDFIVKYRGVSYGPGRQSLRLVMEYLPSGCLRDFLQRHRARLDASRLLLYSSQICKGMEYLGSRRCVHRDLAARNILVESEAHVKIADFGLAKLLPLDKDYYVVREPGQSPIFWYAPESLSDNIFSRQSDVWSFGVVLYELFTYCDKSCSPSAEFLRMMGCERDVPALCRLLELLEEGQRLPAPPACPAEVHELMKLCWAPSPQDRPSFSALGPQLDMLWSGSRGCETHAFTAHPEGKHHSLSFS
Chain of JAK2 (O60674 whole entry): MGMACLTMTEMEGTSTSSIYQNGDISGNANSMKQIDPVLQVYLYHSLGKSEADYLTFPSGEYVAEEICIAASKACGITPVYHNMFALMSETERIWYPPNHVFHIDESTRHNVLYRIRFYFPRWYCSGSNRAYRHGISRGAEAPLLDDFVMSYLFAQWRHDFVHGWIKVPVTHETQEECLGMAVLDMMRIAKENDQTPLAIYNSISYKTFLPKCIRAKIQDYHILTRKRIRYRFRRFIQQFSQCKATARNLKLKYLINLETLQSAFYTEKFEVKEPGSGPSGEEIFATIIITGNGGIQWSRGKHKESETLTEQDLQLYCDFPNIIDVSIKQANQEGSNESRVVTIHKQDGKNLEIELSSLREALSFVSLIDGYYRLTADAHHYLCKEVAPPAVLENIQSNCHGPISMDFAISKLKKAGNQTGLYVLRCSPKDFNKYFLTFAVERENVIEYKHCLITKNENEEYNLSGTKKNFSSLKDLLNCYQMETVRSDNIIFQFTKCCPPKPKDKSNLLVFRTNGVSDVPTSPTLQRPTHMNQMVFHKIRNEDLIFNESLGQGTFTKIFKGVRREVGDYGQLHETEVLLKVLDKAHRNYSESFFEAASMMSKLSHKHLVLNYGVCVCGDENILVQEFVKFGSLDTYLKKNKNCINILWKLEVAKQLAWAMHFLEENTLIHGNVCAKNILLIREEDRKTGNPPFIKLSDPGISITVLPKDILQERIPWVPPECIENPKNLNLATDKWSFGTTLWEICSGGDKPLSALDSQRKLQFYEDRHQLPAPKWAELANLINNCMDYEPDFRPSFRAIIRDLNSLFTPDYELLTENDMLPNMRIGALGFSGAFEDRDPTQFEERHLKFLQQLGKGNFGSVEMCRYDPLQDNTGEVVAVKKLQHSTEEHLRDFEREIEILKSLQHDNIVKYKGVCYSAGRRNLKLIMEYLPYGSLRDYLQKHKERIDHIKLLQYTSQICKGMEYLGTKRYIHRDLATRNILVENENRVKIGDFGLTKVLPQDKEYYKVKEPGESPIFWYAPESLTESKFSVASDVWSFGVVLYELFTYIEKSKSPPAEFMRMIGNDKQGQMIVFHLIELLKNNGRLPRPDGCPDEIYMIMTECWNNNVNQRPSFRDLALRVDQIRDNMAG
Chain of Tyk2 (P29597 whole entry): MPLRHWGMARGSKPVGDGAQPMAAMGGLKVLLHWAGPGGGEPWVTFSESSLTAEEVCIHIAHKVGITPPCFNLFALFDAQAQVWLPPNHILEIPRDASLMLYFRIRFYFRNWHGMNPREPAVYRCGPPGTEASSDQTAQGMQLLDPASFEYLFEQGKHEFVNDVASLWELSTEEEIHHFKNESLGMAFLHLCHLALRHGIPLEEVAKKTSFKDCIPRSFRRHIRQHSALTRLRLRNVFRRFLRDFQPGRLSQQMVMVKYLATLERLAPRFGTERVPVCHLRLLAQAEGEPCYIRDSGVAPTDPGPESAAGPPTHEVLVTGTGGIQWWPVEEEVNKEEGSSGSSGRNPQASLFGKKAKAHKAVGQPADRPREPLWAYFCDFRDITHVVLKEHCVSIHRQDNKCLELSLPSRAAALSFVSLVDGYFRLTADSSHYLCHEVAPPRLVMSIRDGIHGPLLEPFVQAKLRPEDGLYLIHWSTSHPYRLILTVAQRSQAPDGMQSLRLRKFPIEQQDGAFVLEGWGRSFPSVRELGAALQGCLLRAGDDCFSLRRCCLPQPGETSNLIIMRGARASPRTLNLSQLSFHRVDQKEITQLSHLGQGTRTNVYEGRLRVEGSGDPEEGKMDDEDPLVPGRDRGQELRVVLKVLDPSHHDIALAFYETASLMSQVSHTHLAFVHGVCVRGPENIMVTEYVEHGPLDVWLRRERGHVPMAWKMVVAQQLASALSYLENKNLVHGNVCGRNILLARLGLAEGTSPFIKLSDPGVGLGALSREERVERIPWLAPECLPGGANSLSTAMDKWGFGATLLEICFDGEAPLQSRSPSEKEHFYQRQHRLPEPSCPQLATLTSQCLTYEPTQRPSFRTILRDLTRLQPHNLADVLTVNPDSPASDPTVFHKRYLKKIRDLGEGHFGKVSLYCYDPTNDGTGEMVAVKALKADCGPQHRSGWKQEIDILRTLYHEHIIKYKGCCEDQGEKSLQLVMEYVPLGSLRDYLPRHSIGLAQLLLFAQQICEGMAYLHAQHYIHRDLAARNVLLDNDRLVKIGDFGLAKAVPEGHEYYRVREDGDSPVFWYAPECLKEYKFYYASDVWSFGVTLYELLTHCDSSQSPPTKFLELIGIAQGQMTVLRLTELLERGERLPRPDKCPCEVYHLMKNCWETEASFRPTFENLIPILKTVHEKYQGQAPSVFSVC
Chain of JAK1 (P23458 whole entry): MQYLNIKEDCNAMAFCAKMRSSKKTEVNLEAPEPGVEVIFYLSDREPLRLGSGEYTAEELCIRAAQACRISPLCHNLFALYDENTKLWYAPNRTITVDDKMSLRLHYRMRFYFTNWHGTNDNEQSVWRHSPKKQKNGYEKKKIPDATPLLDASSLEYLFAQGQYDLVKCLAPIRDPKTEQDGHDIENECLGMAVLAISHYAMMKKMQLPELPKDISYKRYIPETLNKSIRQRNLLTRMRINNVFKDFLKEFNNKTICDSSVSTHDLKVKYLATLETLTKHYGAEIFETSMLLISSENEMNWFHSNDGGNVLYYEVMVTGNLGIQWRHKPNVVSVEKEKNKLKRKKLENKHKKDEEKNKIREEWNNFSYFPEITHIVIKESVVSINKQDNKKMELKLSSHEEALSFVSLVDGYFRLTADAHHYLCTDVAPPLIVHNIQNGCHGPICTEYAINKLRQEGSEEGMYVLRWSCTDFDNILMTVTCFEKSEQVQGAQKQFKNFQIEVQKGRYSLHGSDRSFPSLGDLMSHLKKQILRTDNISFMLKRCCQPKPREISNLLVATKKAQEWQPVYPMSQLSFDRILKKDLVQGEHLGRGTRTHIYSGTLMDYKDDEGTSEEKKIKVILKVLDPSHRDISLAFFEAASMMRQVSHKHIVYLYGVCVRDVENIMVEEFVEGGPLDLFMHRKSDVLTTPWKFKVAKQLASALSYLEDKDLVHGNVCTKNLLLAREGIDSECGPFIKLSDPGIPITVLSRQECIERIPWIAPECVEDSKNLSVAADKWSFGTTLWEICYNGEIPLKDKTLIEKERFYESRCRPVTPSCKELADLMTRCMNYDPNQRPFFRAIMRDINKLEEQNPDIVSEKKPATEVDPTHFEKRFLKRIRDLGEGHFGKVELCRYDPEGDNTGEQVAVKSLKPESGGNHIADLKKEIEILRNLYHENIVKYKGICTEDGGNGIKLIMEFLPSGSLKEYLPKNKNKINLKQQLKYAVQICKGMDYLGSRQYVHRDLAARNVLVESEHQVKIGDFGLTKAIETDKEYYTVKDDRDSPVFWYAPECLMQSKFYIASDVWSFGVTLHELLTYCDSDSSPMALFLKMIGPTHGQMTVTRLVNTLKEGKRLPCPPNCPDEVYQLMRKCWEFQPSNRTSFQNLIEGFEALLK

Compound	Tyk 2 (pKi) (Tyk2)	JAK 1 (pKi) (JAK1)	Tall-1 (pIC50) [1, 2]	JAK 2 (pKi) (JAK2)	JAK 3 (pKi) (JAK3)	JAK3 (pKi)-JAK1 (pKi) (JAK3; [3])	Tall-1 (pIC50) ([1]; IL-2 stimulated pSTAT5 in Tall-1 T cells)	JAK3 (pKi)-JAK1 (pKi) (JAK3; selectivity, difference of pKi values)
C=CC(=O)N1CC(CCn2c(=O)ccc3cnc(Nc4ccc(OCCO)cc4)nc32)C1 [Example 223]	E (E represents a pKi value of 7 or below (Ki of 100 nM or above))	E (E represents a pKi value of 7 or below (Ki of 100 nM or above))	B (B represents a pC50 value between 6.7 (included) and 7.5 (IC50 between 200 nM and 32 nM))	E (E represents a pKi value of 7 or below (Ki of 100 nM or above))	A (A represents a pKi value≥10 (Ki≤0.1 nM))	A (A represents a value of 3 or above)	–	–
C=CC(=O)N1CCN(CCn2c(=O)ccc3cnc(Nc4cnn(CCF)c4)nc32)[C@@H](C)C1 [Example 236]	E (E represents a pKi value of 7 or below (Ki of 100 nM or above))	E (E represents a pKi value of 7 or below (Ki of 100 nM or above))	B (B represents a pC50 value between 6.7 (included) and 7.5 (IC50 between 200 nM and 32 nM))	E (E represents a pKi value of 7 or below (Ki of 100 nM or above))	B (B represents pKi value between 9 and 10 (Ki between 1 nM and 0.1 nM))	A (A represents a value of 3 or above)	–	–
C=CC(=O)N1CC(CCn2c(=O)ccc3cnc(Nc4ccc(N5CCN(C(=O)CC(C)C)CC5)cc4)nc32)C1 [Example 103]	E (E represents a pKi value of 7 or below (Ki of 100 nM or above))	E (E represents a pKi value of 7 or below (Ki of 100 nM or above))	A (A represents a pIC50 value≥7.5 (IC50≤32 nM))	E (E represents a pKi value of 7 or below (Ki of 100 nM or above))	A (A represents a pKi value≥10 (Ki≤0.1 nM))	A (A represents a value of 3 or above)	–	–
C=CC(=O)N1CCN(CCn2c(=O)ccc3cnc(Nc4ccc(N5CCN(C)CC5)nc4)nc32)CC1 [Example 37]	E (E represents a pKi value of 7 or below (Ki of 100 nM or above))	E (E represents a pKi value of 7 or below (Ki of 100 nM or above))	B (B represents a pC50 value between 6.7 (included) and 7.5 (IC50 between 200 nM and 32 nM))	E (E represents a pKi value of 7 or below (Ki of 100 nM or above))	B (B represents pKi value between 9 and 10 (Ki between 1 nM and 0.1 nM))	A (A represents a value of 3 or above)	–	–
C=CC(=O)N1CCN(CCn2c(=O)ccc3cnc(Nc4ccc(N5CCN(S(=O)(=O)N(C)C)CC5)cc4)nc32)CC1 [Example 211]	E (E represents a pKi value of 7 or below (Ki of 100 nM or above))	E (E represents a pKi value of 7 or below (Ki of 100 nM or above))	B (B represents a pC50 value between 6.7 (included) and 7.5 (IC50 between 200 nM and 32 nM))	E (E represents a pKi value of 7 or below (Ki of 100 nM or above))	A (A represents a pKi value≥10 (Ki≤0.1 nM))	A (A represents a value of 3 or above)	–	–
C=CC(=O)N1CCN(CCn2c(=O)ccc3cnc(Nc4ccc(N5CCN(S(=O)(=O)C6COC6)CC5)cc4)nc32)CC1 [Example 148]	E (E represents a pKi value of 7 or below (Ki of 100 nM or above))	E (E represents a pKi value of 7 or below (Ki of 100 nM or above))	C (C represents a pIC50 value between 6 and 6.7 (IC50 between 1 μM and 200 nM))	E (E represents a pKi value of 7 or below (Ki of 100 nM or above))	B (B represents pKi value between 9 and 10 (Ki between 1 nM and 0.1 nM))	A (A represents a value of 3 or above)	–	–
C=CC(=O)N1CC(CCn2c(=O)ccc3cnc(Nc4ccc(N5CCN(C)CC5)cc4)nc32)C1 [Example 45]	E (E represents a pKi value of 7 or below (Ki of 100 nM or above))	E (E represents a pKi value of 7 or below (Ki of 100 nM or above))	B (B represents a pC50 value between 6.7 (included) and 7.5 (IC50 between 200 nM and 32 nM))	E (E represents a pKi value of 7 or below (Ki of 100 nM or above))	B (B represents pKi value between 9 and 10 (Ki between 1 nM and 0.1 nM))	A (A represents a value of 3 or above)	–	–
C=CC(=O)N1CC(CCn2c(=O)ccc3cnc(Nc4ccc5[nH]cnc5c4)nc32)C1 [Example 84]	E (E represents a pKi value of 7 or below (Ki of 100 nM or above))	E (E represents a pKi value of 7 or below (Ki of 100 nM or above))	C (C represents a pIC50 value between 6 and 6.7 (IC50 between 1 μM and 200 nM))	E (E represents a pKi value of 7 or below (Ki of 100 nM or above))	B (B represents pKi value between 9 and 10 (Ki between 1 nM and 0.1 nM))	A (A represents a value of 3 or above)	–	–
C=CC(=O)N1CCN(CCn2c(=O)ccc3cnc(Nc4cnn(C5CCOCC5)c4)nc32)[C@@H](C)C1 [Example 250]	E (E represents a pKi value of 7 or below (Ki of 100 nM or above))	E (E represents a pKi value of 7 or below (Ki of 100 nM or above))	–	E (E represents a pKi value of 7 or below (Ki of 100 nM or above))	B (B represents pKi value between 9 and 10 (Ki between 1 nM and 0.1 nM))	–	B (B represents a pC50 value between 6.7 (included) and 7.5 (IC50 between 200 nM and 32 nM))	A (A represents a value of 3 or above)
C=CC(=O)N1CC(CCn2c(=O)ccc3cnc(Nc4cnn(CCOCC)c4)nc32)C1 [Example 56]	E (E represents a pKi value of 7 or below (Ki of 100 nM or above))	E (E represents a pKi value of 7 or below (Ki of 100 nM or above))	C (C represents a pIC50 value between 6 and 6.7 (IC50 between 1 μM and 200 nM))	E (E represents a pKi value of 7 or below (Ki of 100 nM or above))	B (B represents pKi value between 9 and 10 (Ki between 1 nM and 0.1 nM))	A (A represents a value of 3 or above)	–	–
C=CC(=O)N1CC(CCn2c(=O)ccc3cnc(Nc4ccc(N5CCN(C(=O)C(C)C)CC5)cc4)nc32)C1 [Example 75]	E (E represents a pKi value of 7 or below (Ki of 100 nM or above))	E (E represents a pKi value of 7 or below (Ki of 100 nM or above))	C (C represents a pIC50 value between 6 and 6.7 (IC50 between 1 μM and 200 nM))	E (E represents a pKi value of 7 or below (Ki of 100 nM or above))	C (C represents a pKi value between 8 and 9 (Ki between 10 nM and 1 nM))	B (B represents a value of 2.5 to 3)	–	–
